Data published in patent US10010614B2, “Derivatives of GLP-1 like peptides, and uses thereof” (Novo Nordisk A/S, priority 2013, dated 2018).
Where two headings read alike, the source gives them in different places. Numbered stars: 1 amine (or outer) side, 2 acyl side, 3 side chain; on linkers, the order of the positions; unused ones are H or OH. Square brackets hold non-standard residues; d marks the D form. Side chains are listed from the residue outwards. Peptide text beside a SMILES is read from it. * marks the point of attachment. X1 = O=C(O)CCCCCCCCCCCCCCCCCCC(=O)NCC1CCC(C(=O)*)CC1; C20 diacid = O=C(O)CCCCCCCCCCCCCCCCCCC(=O)*; γGlu = O=C(O)[C@H](CCC(=O)[*:2])N[*:1]; εLys = N[C@@H](CCCCN[*:1])C(=O)[*:2]; AEEA = NCCOCCOCC(=O)O; Aib = CC(C)(N)C(=O)O

Experiments:
[1] = Pharmacokinetic study in minipigs (i.v.); format: in vivo; details: male, Göttingen, minipig, plasma, iv; read-out: Terminal half-live (converted)
Protocol: The purpose of this study is to determine the protraction in vivo of the GLP-1 derivatives after i.v. administration to minipigs, i.e. the prolongation of their time in the body and thereby their time of action. This is done in a pharmacokinetic (PK) study, where the terminal half-life of the derivative in question is determined. By terminal half-life is meant the time it takes to halve a certain plasma concentration in the terminal elimination phase.
The derivatives of Examples 1-5 were dosed with 2 nmol/kg, the derivative of Example 6 was dosed with 5 nmol/kg, and the derivatives of Examples 7-9 were dosed with 15 nmol/kg.
Male Göttingen minipigs were obtained from Ellegaard Göttingen Minipigs (Dalmose, Denmark) approximately 7-14 months of age and weighing approximately 16-35 kg were used in the studies. The minipigs were housed either individually (pigs with permanent catheters) or in a group and fed restrictedly once or twice daily with SDS minipig diet (Special Diets Services, Essex, UK).
After at least 2 weeks of acclimatisation two permanent central venous catheters were implanted in vena cava caudalis or cranialis in each animal. The animals were allowed 1 week recovery after the surgery, and were then used for repeated pharmacokinetic studies with a suitable wash-out period between successive GLP-1 derivative dosings.
The GLP-1 derivatives were dissolved in 50 mM sodium phosphate, 70-145 mM sodium chloride, 0.05% tween 80, pH 7.4 to a concentration of usually from 20-60 nmol/ml.
Intravenous injections (the volume corresponding to for example 0.050-0.125 ml/kg) of the compounds were given through one catheter or through the venflon, and blood was sampled at predefined time points for up till 25 days post dosing (preferably through the other catheter or by venipuncture). Blood samples (for example 0.8 ml) were collected in EDTA buffer (8 mM) and then centrifuged at 4° C. and 1942G for 10 minutes.
Plasma was pipetted into Micronic tubes on dry ice, and kept at −20° C. until analysed for plasma concentration of the respective GLP-1 compound using LOCI. Individual plasma concentration-time profiles were analyzed by a non-compartmental pharmacokinetic method in Phoenix v. 6.2 (Pharsight Inc., Mountain View, Calif., USA), or other relevant software for PK analysis, and the resulting terminal half-lives (harmonic mean) determined.

human GLP-1 receptor [2] = molecular target: T1, human GLP-1 receptor (Homo sapiens, UniProt P43220); assay: GLP-1 receptor binding, competitive binding assay (125I-GLP-1, SPA) on isolated membranes;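 further: test compounds added at a range of concentrations to membranes from cells expressing the human GLP-1 receptor, scored by displacement of labelled ligand, read with WGA SPA beads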
T1 construct: expressed in transfected cells; host or cells: membranes prepared from BHK cells (parent line BHKTS13), clone FCW467-12A
T1 sequence (P43220 24-463): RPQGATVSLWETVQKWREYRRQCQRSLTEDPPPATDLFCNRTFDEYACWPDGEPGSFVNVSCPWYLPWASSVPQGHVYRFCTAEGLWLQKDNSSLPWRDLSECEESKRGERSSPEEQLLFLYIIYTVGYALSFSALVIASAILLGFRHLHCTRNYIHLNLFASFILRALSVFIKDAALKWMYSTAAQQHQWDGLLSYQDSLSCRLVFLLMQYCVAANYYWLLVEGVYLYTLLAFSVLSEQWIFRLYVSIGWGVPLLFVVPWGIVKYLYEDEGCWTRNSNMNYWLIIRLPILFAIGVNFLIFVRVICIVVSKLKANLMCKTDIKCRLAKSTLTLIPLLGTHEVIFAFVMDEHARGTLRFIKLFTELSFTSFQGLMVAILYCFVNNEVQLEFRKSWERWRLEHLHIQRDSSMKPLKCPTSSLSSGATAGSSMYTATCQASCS

human GLP-1 receptor [3] = molecular target: T1, human GLP-1 receptor; assay: In vitro potency, CRE luciferase reporter gene assay in BHK cells expressing the human GLP-1 receptor; format: cell-based; details: whole cell reporter gene assay, 3 h incubation, no HSA, averages of at least two replicates
In short: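 Stably transfected BHK cells (5×10^3/well) expressing human GLP-1R with a CRE-luciferase reporter; compounds diluted in buffer with 2% ovalbumin and 0.2% Pluronic F-68, final 1×10^−7 to 1×10^−14 M. Incubated 3 h at 37 °C, 5% CO2, then luminescence read; potency from non-linear log(agonist)–response fit, mean of ≥2 replicates.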

[4] = high serum albumin (2.0% HSA final assay concentration), read-out: High HSA IC50
[5] = low serum albumin (max. 0.001% final assay concentration), read-out: Low HSA IC50

| SMILES | half-life [1] [days] | IC50 (human GLP-1 receptor [2]; [4]) [nM] | IC50 (human GLP-1 receptor [2]; [5]) [nM] | EC50 (human GLP-1 receptor [3]) [pM] |
| --- | --- | --- | --- | --- |
| CC[C@H](C)[C@H](NC(=O)[C@H](Cc1ccccc1)NC(=O)[C@H](CCCCNC(=O)COCCOCCNC(=O)COCCOCCNC(=O)CC[C@H](NC(=O)C1CCC(CNC(=O)CCCCCCCCCCCCCCCCCCC(=O)O)CC1)C(=O)O)NC(=O)[C@H](CCCNC(=N)N)NC(=O)[C@H](C)NC(=O)[C@H](C)NC(=O)[C@H](CCC(N)=O)NC(=O)[C@H](CCC(=O)O)NC(=O)[C@H](CCC(=O)O)NC(=O)[C@H](CC(C)C)NC(=O)[C@H](Cc1ccc(O)cc1)NC(=O)[C@H](CO)NC(=O)[C@H](CO)NC(=O)[C@@H](NC(=O)[C@H](CC(=O)O)NC(=O)[C@H](CO)NC(=O)[C@@H](NC(=O)[C@H](Cc1ccccc1)NC(=O)[C@@H](NC(=O)CNC(=O)[C@H](CCC(=O)O)NC(=O)C(C)(C)NC(=O)[C@@H](N)Cc1c[nH]cn1)[C@@H](C)O)[C@@H](C)O)C(C)C)C(=O)N[C@@H](C)C(=O)N[C@@H](Cc1c[nH]c2ccccc12)C(=O)N[C@@H](CC(C)C)C(=O)N[C@H](C(=O)N[C@@H](CCCNC(=N)N)C(=O)NCC(=O)N[C@@H](CCCNC(=N)N)C(=O)NCC(=O)NCC(=O)NCC(=O)NCC(=O)N[C@@H](CO)C(=O)N[C@@H](CCCCNC(=O)COCCOCCNC(=O)COCCOCCNC(=O)CC[C@H](NC(=O)C1CCC(CNC(=O)CCCCCCCCCCCCCCCCCCC(=O)O)CC1)C(=O)O)C(=O)O)C(C)C (stereo partly shown) [Example 1] (H-H[Aib]EGTFTSDVSSYLEEQAARK([AEEA-AEEA-γGlu-X1])FIAWLVRGRGGGGSK([AEEA-AEEA-γGlu-X1])-OH; N-terminus and C-terminus assumed) | 5.04 | – | – | – |
| CC[C@H](C)[C@H](NC(=O)[C@H](Cc1ccccc1)NC(=O)[C@H](CCC(=O)O)NC(=O)[C@H](CCCNC(=N)N)NC(=O)[C@H](C)NC(=O)[C@H](C)NC(=O)[C@H](CCC(N)=O)NC(=O)[C@H](CCC(=O)O)NC(=O)[C@H](CCC(=O)O)NC(=O)[C@H](CC(C)C)NC(=O)[C@H](Cc1ccc(O)cc1)NC(=O)[C@H](CO)NC(=O)[C@H](CO)NC(=O)[C@@H](NC(=O)[C@H](CC(=O)O)NC(=O)[C@H](CO)NC(=O)[C@@H](NC(=O)[C@H](Cc1ccccc1)NC(=O)[C@@H](NC(=O)CNC(=O)[C@H](CCC(=O)O)NC(=O)C(C)(C)NC(=O)[C@@H](N)Cc1c[nH]cn1)[C@@H](C)O)[C@@H](C)O)C(C)C)C(=O)N[C@@H](C)C(=O)N[C@@H](Cc1c[nH]c2ccccc12)C(=O)N[C@@H](CC(C)C)C(=O)N[C@H](C(=O)N[C@@H](CCCNC(=N)N)C(=O)NCC(=O)N[C@@H](CCCNC(=N)N)C(=O)NCC(=O)N[C@@H](CCCCNC(=O)COCCOCCNC(=O)COCCOCCNC(=O)COCCOCCNC(=O)COCCOCCNC(=O)[C@@H](N)CCCCNC(=O)[C@@H](N)CCCCNC(=O)CCCCCCCCCCCCCCCCCCC(=O)O)C(=O)NCC(=O)NCC(=O)N[C@@H](CO)C(=O)N[C@@H](CCCCNC(=O)COCCOCCNC(=O)COCCOCCNC(=O)COCCOCCNC(=O)COCCOCCNC(=O)[C@@H](N)CCCCNC(=O)[C@@H](N)CCCCNC(=O)CCCCCCCCCCCCCCCCCCC(=O)O)C(=O)O)C(C)C [Example 25] (H-H[Aib]EGTFTSDVSSYLEEQAAREFIAWLVRGRGK([AEEA-AEEA-AEEA-AEEA-εLys-εLys-C20 diacid])GGSK([AEEA-AEEA-AEEA-AEEA-εLys-εLys-C20 diacid])-OH; N-terminus and C-terminus assumed) | – | 38 | 0.22 | 10 |
| CC[C@H](C)[C@H](NC(=O)[C@H](Cc1ccccc1)NC(=O)[C@H](CCC(=O)O)NC(=O)[C@H](CCCNC(=N)N)NC(=O)[C@H](C)NC(=O)[C@H](C)NC(=O)[C@H](CCC(N)=O)NC(=O)[C@H](CCC(=O)O)NC(=O)[C@H](CCC(=O)O)NC(=O)[C@H](CC(C)C)NC(=O)[C@H](Cc1ccc(O)cc1)NC(=O)[C@H](CO)NC(=O)[C@H](CO)NC(=O)[C@@H](NC(=O)[C@H](CC(=O)O)NC(=O)[C@H](CO)NC(=O)[C@@H](NC(=O)[C@H](Cc1ccccc1)NC(=O)[C@@H](NC(=O)CNC(=O)[C@H](CCC(=O)O)NC(=O)C(C)(C)NC(=O)[C@@H](N)Cc1c[nH]cn1)[C@@H](C)O)[C@@H](C)O)C(C)C)C(=O)N[C@@H](C)C(=O)N[C@@H](Cc1c[nH]c2ccccc12)C(=O)N[C@@H](CC(C)C)C(=O)N[C@H](C(=O)N[C@@H](CCCNC(=N)N)C(=O)NCC(=O)N[C@@H](CCCNC(=N)N)C(=O)NCC(=O)N[C@@H](CCCCNC(=O)COCCOCCNC(=O)COCCOCCNC(=O)COCCOCCNC(=O)COCCOCCNC(=O)COCCOCCNC(=O)[C@@H](N)CCCCNC(=O)[C@@H](N)CCCCNC(=O)CCCCCCCCCCCCCCCCCCC(=O)O)C(=O)NCC(=O)NCC(=O)N[C@@H](CO)C(=O)N[C@@H](CCCCNC(=O)COCCOCCNC(=O)COCCOCCNC(=O)COCCOCCNC(=O)COCCOCCNC(=O)COCCOCCNC(=O)[C@@H](N)CCCCNC(=O)[C@@H](N)CCCCNC(=O)CCCCCCCCCCCCCCCCCCC(=O)O)C(=O)O)C(C)C [Example 27] (H-H[Aib]EGTFTSDVSSYLEEQAAREFIAWLVRGRGK([AEEA-AEEA-AEEA-AEEA-AEEA-εLys-εLys-C20 diacid])GGSK([AEEA-AEEA-AEEA-AEEA-AEEA-εLys-εLys-C20 diacid])-OH; N-terminus and C-terminus assumed) | – | 30 | 0.08 | 4.4 |
| CC[C@H](C)[C@H](NC(=O)[C@H](Cc1ccccc1)NC(=O)[C@H](CCC(=O)O)NC(=O)[C@H](CCCNC(=N)N)NC(=O)[C@H](C)NC(=O)[C@H](C)NC(=O)[C@H](CCC(N)=O)NC(=O)[C@H](CCC(=O)O)NC(=O)[C@H](CCC(=O)O)NC(=O)[C@H](CC(C)C)NC(=O)[C@H](Cc1ccc(O)cc1)NC(=O)[C@H](CO)NC(=O)[C@H](CO)NC(=O)[C@@H](NC(=O)[C@H](CC(=O)O)NC(=O)[C@H](CO)NC(=O)[C@@H](NC(=O)[C@H](Cc1ccccc1)NC(=O)[C@@H](NC(=O)CNC(=O)[C@H](CCC(=O)O)NC(=O)C(C)(C)NC(=O)[C@@H](N)Cc1c[nH]cn1)[C@@H](C)O)[C@@H](C)O)C(C)C)C(=O)N[C@@H](C)C(=O)N[C@@H](Cc1c[nH]c2ccccc12)C(=O)N[C@@H](CC(C)C)C(=O)N[C@H](C(=O)N[C@@H](CCCNC(=N)N)C(=O)NCC(=O)N[C@@H](CCCNC(=N)N)C(=O)NCC(=O)N[C@@H](CCCCNC(=O)COCCOCCNC(=O)COCCOCCNC(=O)COCCOCCNC(=O)COCCOCCNC(=O)COCCOCCNC(=O)COCCOCCNC(=O)[C@@H](N)CCCCNC(=O)[C@@H](N)CCCCNC(=O)CCCCCCCCCCCCCCCCCCC(=O)O)C(=O)NCC(=O)NCC(=O)N[C@@H](CO)C(=O)N[C@@H](CCCCNC(=O)COCCOCCNC(=O)COCCOCCNC(=O)COCCOCCNC(=O)COCCOCCNC(=O)COCCOCCNC(=O)COCCOCCNC(=O)[C@@H](N)CCCCNC(=O)[C@@H](N)CCCCNC(=O)CCCCCCCCCCCCCCCCCCC(=O)O)C(=O)O)C(C)C [Example 28] (H-H[Aib]EGTFTSDVSSYLEEQAAREFIAWLVRGRGK([AEEA-AEEA-AEEA-AEEA-AEEA-AEEA-εLys-εLys-C20 diacid])GGSK([AEEA-AEEA-AEEA-AEEA-AEEA-AEEA-εLys-εLys-C20 diacid])-OH; N-terminus and C-terminus assumed) | – | 30 | 0.05 | 3.4 |
